Assays:
[1] = target: T1, ThyX protein of H. pylori (Helicobacter pylori, UniProt O26061); test: Tritium release from [5-3H]dUMP by purified ThyX (thymidylate synthase activity); type: biochemical; conditions: for inhibition of ThyX activity: result in words
T1 construct: made in house
From the text: In dTMP formation, the loss of tritium from […] in the solvent is a compulsory intermediary, allowing to quantify the thymidylate-synthetase activity after removal of radioactive nucleotides from the reaction mixtures (ROBERTS, 1966). In order to tackle the biochemical mechanism, wherein ThyX could circumvent the requirement for the ThyA in the de novo synthesis of thymydilate, the purified ThyX protein was used to the same extent.
N^5,N^10—CH2H4folate was non-enzymatically formed, through incubation of 2 mM of tetrahydrofolic acid (Sigma®) with 100 mM of β-mercaptoethanol and 20 mM of formol for 30 minutes in the dark and at room temperature. […] The control reactions were achieved under analogous conditions, without tetrahydrofolic acid. […], a specific activity at 16,2 Ci/mmol (Amersham) and stopped after 60 minutes at 37° C. by two extractions with 250 μl of active carbon [10% (weight/volume) of Norit A] in 2% trichloroacetic acid so as to remove the nucleotides from the reaction mixtures. The remanent radioactivity in the supernatant was determined according to MYLLYKALLIO (2000).

[2] = tested on: transformants containing thyX in the E.coli X2913(ΔthyA) strain; conditions: only high trimethoprim concentrations inhibit

T1 sequence (O26061 whole entry): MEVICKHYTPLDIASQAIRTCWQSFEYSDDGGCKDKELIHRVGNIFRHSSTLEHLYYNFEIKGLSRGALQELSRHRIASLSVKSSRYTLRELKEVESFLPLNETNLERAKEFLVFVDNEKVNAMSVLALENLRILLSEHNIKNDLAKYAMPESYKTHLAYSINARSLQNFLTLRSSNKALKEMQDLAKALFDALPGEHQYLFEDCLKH

## Cc1cn([C@H]2C[C@H](O)[C@@H](COP(=O)(O)O)O2)c(=O)[nH]c1=O [dTMP, thymidine 5′-monophosphate]
[1]
  inhibition of ThyX activity: inhibited

## O=c1[nH]c(=O)n([C@H]2C[C@H](O)[C@@H](COP(=O)(O)O)O2)cc1F [fluoro-dUMP]
[1]
  inhibition of ThyX activity: inhibitor

## O=c1ccn([C@@H]2O[C@H](COP(=O)(O)O)[C@@H](O)[C@H]2O)c(=O)[nH]1 [UMP]
[1]; complete test plus 500 μM of the added nucleotide, 9 μM 3H-dUMP, 60 minute incubation
  nmol of released ^3H/mg of protein (60 minute incubation): 64.4 nmol of released ^3H/mg of protein
[1]; complete test plus 500 μM of the added nucleotide, complete = 100%, 60 minute incubation
  released ^3H as % of the complete test: 102.2%
[1]; simple competition experiments
  use as substrate by the ThyX activity (competition experiments): does not use UMP as a substrate

## COc1cc(Cc2cnc(N)nc2N)cc(OC)c1OC [trimethoprim]
[2]
  inhibition of growth of thyX transformants: inhibited

## Nc1nc2c(c(=O)[nH]1)N1CN(c3ccc(C(=O)N[C@@H](CCC(=O)O)C(=O)O)cc3)CC1CN2 (stereo partly shown) [CH2H4folate]
[1]; complete reaction conditions, 60 minutes incubation
  concentration sufficient for saturating the release activity of tritium: 100 µM
